Experimental data as given in patent US12312359B2 (Vitae Pharmaceuticals, LLC, priority 2016, dated 2025).

Assays:
[1] = tested on: human acute monocytic leukemia cell line MV-4-11; experiment: Assay 2: cell proliferation assay (ATP quantitation, CellTiter-Glo), MV-4-11; format: cell-based; conditions: MV-4-11 cells
In short: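 Read-out is CellTiter-Glo luminescence quantifying ATP. Compound exposure lasted 72 h at 37° C., 5% CO2, with 1.67×10^4 MV-4-11 cells per well in 10% FBS medium, alongside HL-60 toxicity-control cells.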

[2] = biological target: T1, biotinylated wild-type menin and MLL-AF9 fusion protein (menin/MLL binding) (Homo sapiens, UniProt O00255); experiment: Assay 1: menin/MLL binding AlphaLISA assay, wild-type menin; conditions: Table 30; column head does not say wild-type or mutated menin
T1 construct: made in house; host or cells: menin: E. coli; MLL-AF9-FLAG: HEK293 cells, used as cleared lysate
T1 sequence (O00255 1-610): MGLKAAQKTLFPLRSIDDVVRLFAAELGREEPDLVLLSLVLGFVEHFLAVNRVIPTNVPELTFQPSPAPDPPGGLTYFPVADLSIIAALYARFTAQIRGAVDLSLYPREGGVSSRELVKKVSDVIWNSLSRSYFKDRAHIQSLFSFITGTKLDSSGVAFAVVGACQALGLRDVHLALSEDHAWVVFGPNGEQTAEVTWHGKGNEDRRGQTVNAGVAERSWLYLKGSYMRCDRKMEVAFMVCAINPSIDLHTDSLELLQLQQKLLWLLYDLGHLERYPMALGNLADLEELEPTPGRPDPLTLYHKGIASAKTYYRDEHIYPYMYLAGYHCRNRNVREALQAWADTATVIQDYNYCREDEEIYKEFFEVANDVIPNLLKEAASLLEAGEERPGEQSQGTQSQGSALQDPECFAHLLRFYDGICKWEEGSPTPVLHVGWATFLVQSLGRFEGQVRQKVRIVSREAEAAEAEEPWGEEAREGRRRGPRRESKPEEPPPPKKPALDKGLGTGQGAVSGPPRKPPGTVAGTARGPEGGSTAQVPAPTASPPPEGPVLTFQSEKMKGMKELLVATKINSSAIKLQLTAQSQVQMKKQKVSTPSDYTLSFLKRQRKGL
In short: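 Compound was preincubated 30 min at room temperature with biotinylated menin (5 nM) and MLL-AF9-FLAG lysate from HEK293 cells, pH 7.4 buffer with 5% DMSO and DTT. Bead-based Alpha signal after 60 min with streptavidin donor and anti-FLAG acceptor beads; four-parameter logistic fit gave IC50.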

Compound	EC50 ([1]; Homo sapiens, MV4-11, 72 h) [nM]	IC50 [2] [nM]	EC50 ([1]; 72 h) [nM]
Cn1c(=O)[nH]c2ccc(CN3CCC4(CCC(c5ncncc5Oc5ccc(F)cc5Cl)C4)C3)cc21 (centres unmarked) [Example 27, 6-((7-(5-(2-chloro-4-fluorophenoxy)pyrimidin-4-yl)-2-azaspiro[4.4]nonan-2-yl)methyl)-1-methyl-1H-benzo[d]imidazol-2(3H)-one]	≥ 1000	< 100	
CC(C)c1ccccc1-c1cc(F)ccc1Oc1cncnc1N1CCC2(CCN(Cc3ccc4[nH]c(=O)[nH]c4c3)C2)C1 (centres unmarked) [Example 41, 5-((7-(5-((5-fluoro-2′-isopropyl-[1,1′-biphenyl]-2-yl)oxy)pyrimidin-4-yl)-2,7-diazaspiro[4.4]nonan-2-yl)methyl)-1H-benzo[d]imidazol-2(3H)-one]	< 100	< 100	
5-((7-(5-(4-fluoro-2-(3-fluoro-3-methylbutyl)phenoxy) pyrimidin-4-yl)-2,7-diazaspiro[4.4]nonan-2-yl)methyl)-1H-benzo[d]imidazol-2(3H)-one [Example 35]		< 100	100 to 1000
NC(c1cc(F)ccc1Oc1cncnc1N1CCC2(CCN(Cc3ccc4[nH]c(=O)[nH]c4c3)C2)C1)C1CCCC1 (centres unmarked) [Example 7, 5-((7-(5-(2-(amino(cyclopentyl)methyl)-4-fluorophenoxy)pyrimidin-4-yl)-2,7-diazaspiro[4.4]nonan-2-yl)methyl)-1,3-dihydro-2H-benzo[d]imidazol-2-one]	100 to 1000	< 100	
CC(C)c1ncsc1-c1cc(F)ccc1Oc1cncnc1N1CCC2(CCN(Cc3ccc4[nH]c(=O)[nH]c4c3)C2)C1 (centres unmarked) [Example 224, 5-((7-(5-(4-fluoro-2-(4-isopropylthiazol-5-yl)phenoxy)pyrimidin-4-yl)-2,7-diazaspiro[4.4]nonan-2-yl)methyl)-1,3-dihydro-2H-benzo[d]imidazol-2-one]	< 100	< 100	
CCN(C(=O)c1cc(F)ccc1Oc1cncnc1N1CC2(CCN(C[C@H]3CC[C@H](NS(=O)(=O)CC)CC3)CC2)C1)C(C)C [Example 252, N-Ethyl-2-((4-(7-(((1r,4r)-4-(ethylsulfonamido)cyclohexyl)methyl)-2,7-diazaspiro[3.5]nonan-2-yl)pyrimidin-5-yl)oxy)-5-fluoro-N-isopropylbenzamide]	< 100	< 100	
NC1Cc2ccc(-c3cc(F)ccc3Oc3cncnc3N3CC4(CN(CC5CCOCC5)C4)C3)cc2C1 (centres unmarked) [Example 68, 5-(5-fluoro-2-((4-(6-((tetrahydro-2H-pyran-4-yl)methyl)-2,6-diazaspiro[3.3]heptan-2-yl)pyrimidin-5-yl)oxy)phenyl)-2,3-dihydro-1H-inden-2-amine]	≥ 1000	< 100	
CC(C)(C)OC(=O)N[C@H]1CC[C@H](CCN2CC3(C2)CN(c2ncncc2Oc2ccc(F)cc2-c2ccc(C#N)cc2C2CC2)C3)CC1 [Example 189, tert-butyl ((1r,4r)-4-(2-(6-(5-((4′-cyano-2′-cyclopropyl-5-fluoro-[1,1′-biphenyl]-2-yl)oxy)pyrimidin-4-yl)-2,6-diazaspiro[3.3]heptan-2-yl)ethyl)cyclohexyl) carbamate]	100 to 1000	< 100	
CC(C)N(C(=O)c1cc(F)ccc1Oc1cncnc1N1CCC2(CCN(Cc3ccc4[nH]c(=O)[nH]c4c3)C2)C1)C1CC1 (centres unmarked) [Example 122, N-cyclopropyl-5-fluoro-N-isopropyl-2-((4-(7-((2-oxo-2,3-dihydro-1H-benzo[d]imidazol-5-yl)methyl)-2,7-diazaspiro[4.4]nonan-2-yl)pyrimidin-5-yl)oxy)benzamide]	< 100	< 100	
CC(C)c1ccccc1-c1cc(F)c(F)cc1Oc1cncnc1N1CCC2(CCN(Cc3ccc4[nH]c(=O)[nH]c4c3)C2)C1 (centres unmarked) [Example 47, 5-((7-(5-((4,5-difluoro-2′-isopropyl-[1,1′-biphenyl]-2-yl)oxy)pyrimidin-4-yl)-2,7-diazaspiro[4.4]nonan-2-yl)methyl)-1H-benzo[d]imidazol-2(3H)-one]	100 to 1000	< 100	
CC(=O)N[C@H]1CC[C@@H](CN2CCC3(CCN(c4ncncc4Oc4ccc(F)cc4-c4ccc(C#N)cc4C4CC4)C3)C2)CC1 (some centres unmarked) [Example 190A, N-((1s,4s)-4-((7-(5-((4′-cyano-2′-cyclopropyl-5-fluoro-[1,1′-biphenyl]-2-yl)oxy)pyrimidin-4-yl)-2,7-diazaspiro[4.4]nonan-2-yl)methyl)cyclohexyl) acetamide]	100 to 1000	< 100	
CC(C)N(C(=O)c1cc(F)ccc1Oc1cncnc1N1CC2(CCN(C(=O)Cc3ccc(C#N)cc3)C2)C1)C(C)C [Example 113, 2-((4-(6-(2-(4-cyanophenyl)acetyl)-2,6-diazaspiro[3.4]octan-2-yl)pyrimidin-5-yl)oxy)-5-fluoro-N,N-diisopropylbenzamide]	< 100	< 100	
CCN(C(=O)C(C)C)c1cc(F)ccc1Oc1cncnc1N1CC2(CN(CC3CCCCC3)C2)C1 [Example 106, N-(2-((4-(6-(cyclohexylmethyl)-2,6-diazaspiro[3.3]heptan-2-yl)pyrimidin-5-yl)oxy)-5-fluoro-phenyl)-N-ethylisobutyramide]	< 100	< 100	
CC(C)N(C)C(=O)c1cc(F)ccc1Oc1cncnc1N1CC2(CN(CC3CCCCC3)C2)C1 [Example 167, 2-((4-(6-(cyclohexylmethyl)-2,6-diazaspiro[3.3]heptan-2-yl)pyrimidin-5-yl)oxy)-5-fluoro-N-isopropyl-N-methylbenzamide]	100 to 1000	< 100	
CC(C)c1ncncc1-c1cc(F)ccc1Oc1cncnc1N1CC2(CC(NC(C)c3ccc(C#N)cc3)C2)C1 (centres unmarked) [Example 141, 4-(1-((2-(5-(4-fluoro-2-(4-isopropylpyrimidin-5-yl)phenoxy)pyrimidin-4-yl)-2-azaspiro[3.3]heptan-6-yl)amino)ethyl)benzo-nitrile]	100 to 1000	< 100	
CCN(C(=O)c1cc(F)ccc1Oc1cncnc1N1CCC2(CCN(Cc3ccc4[nH]c(=O)[nH]c4c3)C2)C1)C(C)C (single isomer, unassigned) [Example 2B, N-ethyl-5-fluoro-N-isopropyl-2-((4-(7-((2-oxo-2,3-dihydro-1H-benzo[d]imidazol-5-yl)methyl)-2,7-diazaspiro[4.4]nonan-2-yl)pyrimidin-5-yl)oxy)benzamide]	< 100	< 100	
N#Cc1ccc(-c2cc(F)ccc2Oc2cncnc2N2CCC3(CCN(Cc4ccc5nn[nH]c5c4)C3)C2)c(C2CC2)c1 (centres unmarked) [Example 171, 2′-((4-(7-((1H-benzo[d][1,2,3]triazol-6-yl)methyl)-2,7-diazaspiro[4.4]nonan-2-yl)pyrimidin-5-yl)oxy)-2-cyclopropyl-5′-fluoro-[1,1′-biphenyl]-4-carbonitrile]	< 100	< 100	
CC(C)(O)CCc1cc(F)ccc1Oc1cncnc1N1CCC2(CCN(Cc3ccc4[nH]c(=O)[nH]c4c3)C2)C1 (centres unmarked) [Example 36, 5-((7-(5-(4-fluoro-2-(3-hydroxy-3-methylbutyl)phenoxy)pyrimidin-4-yl)-2,7-diazaspiro[4.4]nonan-2-yl)methyl)-1H-benzo[d]imidazol-2(3H)-one]	100 to 1000	< 100	
CC(C)N(C)C(=O)c1cc(F)ccc1Oc1cncnc1N1CC2(CN(CC3CCOCC3)C2)C1 [Example 225, 5-fluoro-N-isopropyl-N-methyl-2-((4-(6-((tetrahydro-2H-pyran-4-yl)methyl)-2,6-diazaspiro[3.3]heptan-2-yl)pyrimidin-5-yl)oxy)benzamide]	100 to 1000	< 100	
Fc1ccc(Oc2cncnc2N2CC3(CN(CC4CCOCC4)C3)C2)c(OC2CCCC2)c1 [Example 168, 2-(5-(2-(cyclopentyloxy)-4-fluorophenoxy)pyrimidin-4-yl)-6-((tetrahydro-2H-pyran-4-yl)methyl)-2,6-diazaspiro[3.3]heptane]	≥ 1000	< 100	
CCN(CC)C(=O)c1cc(F)ccc1Oc1cncnc1N1CCC2(CCN(Cc3ccc4[nH]c(=O)[nH]c4c3)C2)C1 (centres unmarked) [Example 173, N,N-diethyl-5-fluoro-2-((4-(7-((2-oxo-2,3-dihydro-1H-benzo[d]imidazol-5-yl)methyl)-2,7-diazaspiro[4.4]nonan-2-yl)pyrimidin-5-yl)oxy)benzamide]	100 to 1000	< 100	
Cn1c(-c2cc(F)ccc2Oc2cncnc2N2CCC3(CCN(Cc4ccc5c(c4)[nH]c(=O)n5CCO)C3)C2)c(C2CC2)ccc1=O (single isomer, unassigned) [Example 81A, 5-((7-(5-(2-(3-cyclopropyl-1-methyl-6-oxo-1,6-dihydropyridin-2-yl)-4-fluorophenoxy)pyrimidin-4-yl)-2,7-diazaspiro[4.4]nonan-2-yl)methyl)-1-(2-hydroxyethyl)-1H-benzo[d]imidazol-2(3H)-one]	100 to 1000	< 100	
